Test system: PDE1
Test: In vitro HTRF PDE1 inhibition assay
Type: biochemical
Conditions: HTRF cGMP assay, 100 nM cyclic GMP, PDE (1A3, 1B or 1C) with calmodulin, 45 minutes at 37° C.; isoform of the tabulated values not stated
Excerpt: An exemplary procedure for the in vitro Homogenous Time Resolved Fluorescence assay, which can be used to determine the inhibitory action of compounds of the invention toward. PDE1 or its isoforms, follows.
The HTRF PDE1 assay utilized the HTRF (Homogenous Time Resolved Fluorescence) technology, which is based on the competition between unlabeled cyclic nucleotide and cyclic nucleotide labeled with XL665 for the binding to cyclic nucleotide-specific antibody labeled with cryptate. The HTRF signal is thus inversely proportional to the concentration of cyclic nucleotide being measured. Since phosphodiesterases break down cyclic nucleotides the HTRF signal was used to determine PDE activity.
The Cisbio cGMP HTRF assay kit (Cat no: 62GM2PEC) was utilized. Cyclic GMP was diluted to 200 nM in HTRF assay buffer (1 mM CaCl2, 10 mM MgCl2, 10 mM Tris-HCl, 0.1% BSA, pH7.4). 10 μl of compound or DMSO was diluted in 200 nM cyclic GMP solution and added to wells of a 96 well white plate to give 100 nM cyclic GMP in 1% DMSO final concentration. PDE (1A3, 1B or 1C) was diluted to 2× working concentration in HTRF assay buffer with […] Calmodulin, and 10 μl was added to initiate the reaction. The plate was then incubated for 45 minutes at 37° C. d2-Labelled cyclic GMP and anti-cGMP cryptate were diluted in 50 mM phosphate buffer, 0.8M KF, 1% Triton X100, 0.2% BSA, pH7.0. Following incubation 10 μl d2-cGMP, then 10 μl anti cGMP cryptate were added to each well and the plate was incubated for 45 minutes at room temperature. The plate was then read on Perkin Elmer Victor at 2 different FRET readings ex/emm 340 nm/665 nm and 340 nm/615 nm.
Compounds having an IC50 of <1 μM, are denoted as +++. Compounds having an IC50 of 1-10 μM, are denoted as ++. Compounds having an IC50 of >10 μM, are denoted as +.

SMILES	IC50 [µM]
CC(C)c1n[nH]c2c(=O)n3c(nc12)C(C)NCC3 (racemic) [Compound I-11, (±)-3-Isopropyl-5-methyl-5,6,7,8-tetrahydropyrazino[1,2-a]pyrazolo[4,3-d]pyrimidin-10(1H)-one]	> 10
CC(C)c1n[nH]c2c(=O)n3c(nc12)C(Cc1ccccc1)NCC3 (racemic) [Compound I-12, (±)-5-Benzyl-3-isopropyl-5,6,7,8-tetrahydropyrazino[1,2-a]pyrazolo[4,3-d]pyrimidin-10(1H)-one]	> 10
CC(C)c1nn(C)c2c(=O)n3c(nc12)C(C)NCC3 (racemic) [Compound I-14, (±)-3-Isopropyl-1,5-dimethyl-5,6,7,8-tetrahydropyrazino[1,2-a]pyrazolo[4,3-d]pyrimidin-10(1H)-one]	> 10
CC(C)c1nn(C)c2c(=O)n3c(nc12)C(Cc1ccccc1)NCC3 (racemic) [Compound I-15, (±)-5-Benzyl-3-isopropyl-1-methyl-5,6,7,8-tetrahydropyrazino[1,2-a]pyrazolo[4,3-d]pyrimidin-10(1H)-one]	> 10
CC1c2nc3c(cnn3C)c(=O)n2CCN1C (racemic) [Compound I-20, (±)-1,8,9-Trimethyl-6,7,8,9-tetrahydropyrazino[1,2-a]pyrazolo[3,4-d]pyrimidin-4(1H)-one]	> 10
CC1c2nc3c(cnn3C(C)C)c(=O)n2CCN1C (racemic) [Compound I-21, (±)-1-Isopropyl-8,9-dimethyl-6,7,8,9-tetrahydropyrazino[1,2-a]pyrazolo[3,4-d]pyrimidin-4(1H)-one]	> 10
CN1CCn2c(nc3[nH]ncc3c2=O)C1Cc1ccccc1 (racemic) [Compound I-23, (±)-9-Benzyl-8-methyl-6,7,8,9-tetrahydropyrazino[1,2-a]pyrazolo[3,4-d]pyrimidin-4(1H)-one]	> 10
CC(C)n1ncc2c(=O)n3c(nc21)C(Cc1ccccc1)N(C)CC3 (racemic) [Compound I-25, (±)-9-Benzyl-1-isopropyl-8-methyl-6,7,8,9-tetrahydropyrazino[1,2-a]pyrazolo[3,4-d]pyrimidin-4(1H)-one]	> 10
O=c1c2cn[nH]c2nc2n1CCN(Cc1ccccc1)C2Cc1ccccc1 (racemic) [Compound I-34, (±)-8,9-Dibenzyl-6,7,8,9-tetrahydropyrazino[1,2-a]pyrazolo[3,4-d]pyrimidin-4(1H)-one]	> 10
Cn1ncc2c(=O)n3c(nc21)C(Cc1ccccc1)N(Cc1ccccc1)CC3 (racemic) [Compound I-35, (±)-8,9-Dibenzyl-1-methyl-6,7,8,9-tetrahydropyrazino[1,2-a]pyrazolo[3,4-d]pyrimidin-4(1H)-one]	> 10
CC(C)n1ncc2c(=O)n3c(nc21)C(Cc1ccccc1)N(Cc1ccccc1)CC3 (racemic) [Compound I-36, (±)-8,9-Dibenzyl-1-Isopropyl-6,7,8,9-tetrahydropyrazino[1,2-a]pyrazolo[3,4-d]pyrimidin-4(1H)-one]	> 10
O=c1c2cnn(-c3ccccc3)c2nc2n1CCN(Cc1ccccc1)C2Cc1ccccc1 (racemic) [Compound I-37, (±)-8,9-Dibenzyl-1-phenyl-6,7,8,9-tetrahydropyrazino[1,2-a]pyrazolo[3,4-d]pyrimidin-4(1H)-one]	> 10
CC(C)c1n[nH]c2c(=O)n3c(nc12)C(C)N(C)CC3 (racemic) [Compound I-38, (±)-3-Isopropyl-5,6-dimethyl-5,6,7,8-tetrahydropyrazino[1,2-a]pyrazolo[4,3-d]pyrimidin-10(1H)-one]	> 10
CC(C)c1n[nH]c2c(=O)n3c(nc12)C(Cc1ccccc1)N(C)CC3 (racemic) [Compound I-39, (±)-5-Benzyl-3-isopropyl-6-methyl-5,6,7,8-tetrahydropyrazino[1,2-a]pyrazolo[4,3-d]pyrimidin-10(1H)-one]	> 10
CC(C)c1nn(C)c2c(=O)n3c(nc12)C(C)N(C)CC3 (racemic) [Compound I-41, (±)-3-Isopropyl-1,5,6-trimethyl-5,6,7,8-tetrahydropyrazino[1,2-a]pyrazolo[4,3-d]pyrimidin-10(1H)-one]	> 10

Second part, the compound after the results:

IC50 [µM]	SMILES
> 10	CC1NCCn2c1nc1c(cnn1C)c2=O (racemic) [Compound I-3, (±)-1,9-Dimethyl-6,7,8,9-tetrahydropyrazino[1,2-a]pyrazolo[3,4-d]pyrimidin-4(1H)-one]
> 10	CC1NCCn2c1nc1c(cnn1C(C)C)c2=O (racemic) [Compound I-4, (±)-1-Isopropyl-9-methyl-6,7,8,9-tetrahydropyrazino[1,2-a]pyrazolo[3,4-d]pyrimidin-4(1H)-one]
> 10	CC1NCCn2c1nc1c(cnn1-c1ccccc1)c2=O (racemic) [Compound I-5, (±)-9-Methyl-1-phenyl-6,7,8,9-tetrahydropyrazino[1,2-a]pyrazolo[3,4-d]pyrimidin-4(1H)-one]
> 10	O=c1c2cn[nH]c2nc2n1CCNC2Cc1ccccc1 (racemic) [Compound I-6, (±)-9-Benzyl-6,7,8,9-tetrahydropyrazino[1,2-a]pyrazolo[3,4-d]pyrimidin-4(1H)-one]
> 10	Cn1ncc2c(=O)n3c(nc21)C(Cc1ccccc1)NCC3 (racemic) [Compound I-7, (±)-9-Benzyl-1-methyl-6,7,8,9-tetrahydropyrazino[1,2-a]pyrazolo[3,4-d]pyrimidin-4(1H)-one]
1 to 10	CC(C)n1ncc2c(=O)n3c(nc21)C(Cc1ccccc1)NCC3 (racemic) [Compound I-8, (±)-9-Benzyl-1-isopropyl-6,7,8,9-tetrahydropyrazino[1,2-a]pyrazolo[3,4-d]pyrimidin-4(1H)-one]
> 10	O=c1c2cnn(-c3ccccc3)c2nc2n1CCNC2Cc1ccccc1 (racemic) [Compound I-9, (±)-9-Benzyl-1-phenyl-6,7,8,9-tetrahydropyrazino[1,2-a]pyrazolo[3,4-d]pyrimidin-4(1H)-one]
> 10	CC1c2nc3c(cnn3-c3ccccc3)c(=O)n2CCN1C (racemic) [Compound I-22, (±)-8,9-Dimethyl-1-phenyl-6,7,8,9-tetrahydropyrazino[1,2-a]pyrazolo[3,4-d]pyrimidin-4(1H)-one]
> 10	CN1CCn2c(nc3c(cnn3C)c2=O)C1Cc1ccccc1 (racemic) [Compound I-24, (±)-9-Benzyl-1,8-dimethyl-6,7,8,9-tetrahydropyrazino[1,2-a]pyrazolo[3,4-d]pyrimidin-4(1H)-one]
> 10	CN1CCn2c(nc3c(cnn3-c3ccccc3)c2=O)C1Cc1ccccc1 (racemic) [Compound I-26, (±)-9-Benzyl-8-methyl-1-phenyl-6,7,8,9-tetrahydropyrazino[1,2-a]pyrazolo[3,4-d]pyrimidin-4(1H)-one]
> 10	CC1c2nc3c(cnn3C)c(=O)n2CCN1Cc1ccccc1 (racemic) [Compound I-31, (±)-8-Benzyl-1,9-dimethyl-6,7,8,9-tetrahydropyrazino[1,2-a]pyrazolo[3,4-d]pyrimidin-4(1H)-one]
> 10	CC1c2nc3c(cnn3C(C)C)c(=O)n2CCN1Cc1ccccc1 (racemic) [Compound I-32, (±)-8-Benzyl-1-isopropyl-9-methyl-6,7,8,9-tetrahydropyrazino[1,2-a]pyrazolo[3,4-d]pyrimidin-4(1H)-one]
> 10	CC1c2nc3c(cnn3-c3ccccc3)c(=O)n2CCN1Cc1ccccc1 (racemic) [Compound I-33, (±)-8-Benzyl-9-methyl-1-phenyl-6,7,8,9-tetrahydropyrazino[1,2-a]pyrazolo[3,4-d]pyrimidin-4(1H)-one]

Reference: patent US20160083391A1, “TRICYCLIC PIPERAZINE DERIVATIVE” (Sunovion Pharmaceuticals Inc., priority 2014, published 2016)
